According to PubChem BioAssay (NCI):
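96-well plates; 48 h exposure; 5 concentrations. Endpoints by linear interpolation between flanking doses. Not reached: highest tested concentration assigned. The concentration for 50% growth inhibition is given as GI50. At the TGI there is no net growth.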

Columns and labels:
Experiment in all cases: NCI anticancer screen, dose series, 48 h
MDA-MB-231 breast = test system: MDA-MB-231 breast
PC-3 prostate = test system: PC-3 prostate
DU-145 prostate = test system: DU-145 prostate
LXFL 529 NSCLC = test system: LXFL 529 NSCLC

| SMILES | GI50 (MDA-MB-231 breast) [µM] | TGI (MDA-MB-231 breast) [µM] | GI50 (PC-3 prostate) [µM] | TGI (PC-3 prostate) [µM] | GI50 (DU-145 prostate) [µM] | TGI (DU-145 prostate) [µM] | TGI (LXFL 529 NSCLC) [µM] |
| --- | --- | --- | --- | --- | --- | --- | --- |
| O=C(c1ccccc1)c1nn(-c2ccccc2)c2nc3nc(-c4ccccc4)cc(=O)n3nc12 | 26.2 | > 100 | 32.4 | > 100 | 23.8 | 58.2 |  |
| C[C@]12CCc3sc(-c4cccc(F)c4)nc3C1=CC[C@@H]1[C@@H]2CC[C@]2(C)C(=O)CC[C@@H]12 | 2.6 | 7.34 | 3.08 | 14.2 |  |  |  |
| Cc1cc2c(C(C)C)c(O)c(O)c(C=Nc3ccccc3)c2c(O)c1-c1c(C)cc2c(C(C)C)c(O)c(O)c(C=Nc3ccccc3)c2c1O |  |  |  |  |  |  | > 100 |
